The source made the active and inactive calls. No cut-off for these calls is given here.
What was measured:
[1] = Toxicity in BALB/c mouse implanted with mouse CT26 cells assessed as injury in kidney at 15 to 45 mg/kg, ip qd treated for 14 days by H and E staining based analysis; type: organism-based; conditions: in vivo, 336 h, dose 15-45 mg/kg, time 14 day
HCT-116 [2] = assay: Induction of apoptosis in human HCT-116 cells assessed as increase in Bax level at 0.3 to 1.2 uM incubated for 48 hrs by Western blot analysis; type: functional, cell-based; conditions: dose 0.3-1.2 µM
[3] = target: T1, Peptidyl-prolyl cis-trans isomerase A (Homo sapiens, UniProt P62937); assay: Binding affinity to PPIA (unknown origin) at 2 uM preincubated for 30 mins followed by Proteinase K addition measured after 10 mins by LiP-SMap analysis
T1 sequence (P62937 whole entry, looked up): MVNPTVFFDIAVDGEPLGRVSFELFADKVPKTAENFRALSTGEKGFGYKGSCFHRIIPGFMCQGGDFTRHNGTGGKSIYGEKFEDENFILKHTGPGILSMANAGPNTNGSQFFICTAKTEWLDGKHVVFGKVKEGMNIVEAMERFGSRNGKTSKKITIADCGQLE

HCT-116 [4] = assay: Induction of mitochondrial dysfunction in human HCT-116 cells at 1.2 uM in presence of NAC by JC-1 dye based analysis; type: functional, cell-based
[5] = Toxicity in BALB/c mouse implanted with mouse CT26 cells assessed as injury in lung at 15 to 45 mg/kg, ip qd treated for 14 days by H and E staining based analysis; type: organism-based; conditions: in vivo, 336 h, dose 15-45 mg/kg, time 14 day
HCT-116 [6] = assay: Induction of cell cycle arrest in human HCT-116 cells assessed as accumulation at S phase at 0.3 uM incubated for 48 hrs by PI staining based flow cytometry (reference value: 34.55 %); type: functional
HCT-116 [7] = assay: Induction of intracellular ROS generation in human HCT-116 cells at 1.2 uM in presence of NAC by flow cytometry; type: functional, cell-based
HCT-116 [8] = assay: Inhibition of cell viability in human HCT-116 cells at 0.3 to 1.2 uM incubated for 48 hrs; type: functional, cell-based; conditions: dose 0.3-1.2 µM
HCT-116 [9] = assay: Induction of cell cycle arrest in human HCT-116 cells assessed as decrease in cyclin A2 level incubated for 48 hrs by Western blot analysis; type: functional, cell-based; conditions: dose 0.3-1.2 µM
HCT-116 [10] = assay: Antiproliferative activity against human HCT-116 cells at 0.3 to 1.2 uM incubated for 48 hrs by EdU uptake assay; type: functional, cell-based; conditions: dose 0.3-1.2 µM
HCT-116 [11] = assay: Induction of apoptosis in human HCT-116 cells assessed as necrotic cells at 0.6 uM incubated for 48 hrs by Annexin V-FITC/PI staining based flow cytometry (reference value: 1.15 %); type: functional
HCT-116 [12] = assay: Effect on VCP expression in human HCT-116 cells upto 6 uM incubated for 30 mins followed by pronase addition measured after 30 mins by DARTS assay; type: functional, cell-based
HCT-116 [13] = assay: Induction of apoptosis in human HCT-116 cells assessed as necrotic cells at 0.3 uM incubated for 48 hrs by Annexin V-FITC/PI staining based flow cytometry (reference value: 1.15 %); type: functional
SW480 = assay: Antiproliferative activity against human SW480 cells assessed as inhibition of cell viability incubated for 48 hrs by CCK8 assay; type: functional, cell-based; conditions: SW480, 48 h
HCT-116 [14] = assay: Induction of apoptosis in human HCT-116 cells assessed as early apoptotic cells at 0.3 uM incubated for 48 hrs by Annexin V-FITC/PI staining based flow cytometry (reference value: 1.12 %); type: functional
HCT-116 [15] = assay: Inhibition of cell viability in human HCT-116 cells at 0.3 to 1.2 uM incubated for 48 hrs in presence of NAC; type: functional, cell-based; conditions: dose 0.3-1.2 µM
CT26 [16] = assay: Antitumor activity against mouse CT26 cells implanted in BALB/c mouse assessed as necrosis in tumor tissue at 15 to 45 mg/kg, ip qd treated for 14 days by H and E staining based analysis; type: functional, organism-based; conditions: dose 15-45 mg/kg, time 14.0 day
HCT-116 [17] = assay: Induction of mitochondrial dysfunction in human HCT-116 cells assessed as decrease in ATP6 level at 0.3 to 1.2 uM by Western blot analysis; type: functional, cell-based; conditions: dose 0.3-1.2 µM
[18] = target: T1, Peptidyl-prolyl cis-trans isomerase A; assay: Binding affinity to PPIA in human HCT-116 cells assessed as protein stability incubated for 30 mins followed by pronase addition measured after 30 mins by DARTS assay; type: cell-based; conditions: dose <= 6.0 µM, time 60.0 min
HCT-116 [19] = assay: Induction of apoptosis in human HCT-116 cells assessed as decrease in p-JNK level by Western blot analysis; type: functional, cell-based; conditions: dose 0.3-1.2 µM
HCT-116 [20] = assay: Effect on HSPA1A expression in human HCT-116 cells upto 6 uM incubated for 30 mins followed by pronase addition measured after 30 mins by DARTS assay; type: functional, cell-based
HCT-116 [21] = assay: Induction of apoptosis in human HCT-116 cells assessed as decrease in Bcl-2 level at 0.3 to 1.2 uM incubated for 48 hrs by Western blot analysis; type: functional, cell-based; conditions: dose 0.3-1.2 µM
HCT-116 [22] = assay: Anti-proliferative activity against human HCT-116 cells harboring siNC assessed as decrease in p-JNK level at 1.2 uM by Western blot analysis; type: functional, cell-based
HCT-116 [23] = assay: Induction of apoptosis in human HCT-116 cells assessed as increase in cleaved caspase-3 level at 0.3 to 1.2 uM incubated for 48 hrs by Western blot analysis; type: functional, cell-based; conditions: dose 0.3-1.2 µM
HCT-116 [24] = assay: Anti-migration activity in human HCT-116 cells incubated for 24 hrs by wound healing assay; type: functional, cell-based; conditions: dose 0.3-1.2 µM
HCT-116 [25] = assay: Induction of intracellular ROS generation in human HCT-116 cells harboring siPPIA-3 at 1.2 uM by flow cytometry (reference value: 15.4 %); type: functional
HCT-116 [26] = assay: Anti-migration activity in human HCT-116 cells harboring siPPIA-3 at 1.2 uM incubated for 24 hrs by wound healing assay; type: functional, cell-based
[27] = target: T1, Peptidyl-prolyl cis-trans isomerase A; assay: Binding affinity to PPIA in human HCT-116 cells assessed as increase in thermal stability at 16 uM incubated for 30 mins followed by heat exposure at 40 to 60 degreeC for 3 mins by CETSA; type: cell-based; conditions: time 33.0 min
[28] = Acute toxicity in BALB/c mouse assessed as lethal dose administered intraperitoneally measured for 14 days; conditions: in vivo, route ip, time 14 day
HCT-116 [29] = assay: Induction of apoptosis in human HCT-116 cells harboring siNC assessed as necrotic cells at 1.2 uM by Annexin V-FITC/PI staining based flow cytometry (reference value: 0.21 %); type: functional
HCT-116 [30] = assay: Inhibition of colony formation in human HCT-116 cells harboring siPPIA-3 at 1.2 uM incubated for 48 hrs followed by fresh media replacement without compound on every 72 hrs for 14 days by crystal violet staining based analysis; type: functional, cell-based
HCT-116 [31] = assay: Induction of ER stress in human HCT-116 cells assessed as increase in CHOP level at 0.3 to 1.2 uM by Western blot analysis; type: functional, cell-based; conditions: dose 0.3-1.2 µM
HCT-116 [32] = assay: Induction of apoptosis in human HCT-116 cells assessed as decrease in Bcl-2 level at 1.2 uM in presence of NAC by Western blot analysis; type: functional, cell-based
[33] = Toxicity in BALB/c mouse implanted with mouse CT26 cells assessed as abnormality in liver at 15 to 45 mg/kg, ip qd treated for 14 days by H and E staining based analysis; type: organism-based; conditions: in vivo, 336 h, dose 15-45 mg/kg, time 14 day
CT26 [34] = assay: Antitumor activity against mouse CT26 cells implanted in BALB/c mouse assessed as tumor growth inhibition administered intraperitoneally once daily for 14 days; type: functional; conditions: dose 15-45 mg/kg, route ip, time 14.0 day
[35] = Toxicity in BALB/c mouse implanted with mouse CT26 cells assessed as abnormality in kidney at 15 to 45 mg/kg, ip qd treated for 14 days by H and E staining based analysis; type: organism-based; conditions: in vivo, 336 h, dose 15-45 mg/kg, time 14 day

C=C(C(=O)OC)N1c2nc(Cl)nc(Cl)c2N2C(c3ccccc3F)OC(C(=O)OCC)(C(=O)OCC)C12 (racemic)
Activity [1]: Non-toxic | Activity (HCT-116 [2]): Active | Activity [3]: Active | Activity (HCT-116 [4]): inactive | Activity [5]: Non-toxic | Activity (HCT-116 [6]): 27.89% | Activity (HCT-116 [7]): inactive | inhibition (HCT-116 [8]): Active | Activity (HCT-116 [9]): Dose-dependent-effect | Activity (HCT-116 [10]): Active | Activity (HCT-116 [11]): 2.12% | Activity (HCT-116 [12]): No effect | Activity (HCT-116 [13]): 1.8% | IC50 (SW480): 2.59 µM | Activity (HCT-116 [14]): 11.7% | inhibition (HCT-116 [15]): inactive | Activity (CT26 [16]): Active | Activity (HCT-116 [17]): Active | Activity [18]: Dose-dependent-effect | Activity (HCT-116 [19]): Dose-dependent-effect | Activity (HCT-116 [20]): No effect | Activity (HCT-116 [21]): Active | Activity (HCT-116 [22]): Active | Activity (HCT-116 [23]): Active | Activity (HCT-116 [24]): Dose-dependent-effect | Activity (HCT-116 [25]): 16.8% | Activity (HCT-116 [26]): inactive | Activity [27]: Active; Activity Similar To Csa | LD50 at 336 h [28]: 453 mg/kg | Activity (HCT-116 [29]): 0.57% | inhibition (HCT-116 [30]): inactive | Activity (HCT-116 [31]): Active | Activity (HCT-116 [32]): inactive | Activity [33]: Non-toxic | inhibition (CT26 [34]): Dose-dependent-effect | Activity [35]: Non-toxic

From ChEMBL document CHEMBL6103618, “Discovery of Novel Oxazolo[4,3-f]purine Derivatives as Antitumor Agents through PPIA Interaction” (J Med Chem, 2025)
